Assays:
SK-MEL-28 = assay: NCI one-dose screening, melanoma SK-MEL-28; format: cell-based, human; conditions: 10 μM
MCF7 = assay: NCI one-dose screening, breast cancer MCF7; format: cell-based, human; conditions: 10 μM
BT-549 = assay: NCI one-dose screening, breast cancer BT-549; format: cell-based, human; conditions: 10 μM
SK-OV-3 = assay: NCI one-dose screening, ovarian cancer SK-OV-3; format: cell-based, human; conditions: 10 μM
IGROV1 = assay: NCI one-dose screening, ovarian cancer IGROV1; format: cell-based, human; conditions: 10 μM
SK-MEL-2 = assay: NCI one-dose screening, melanoma SK-MEL-2; format: cell-based, human; conditions: 10 μM
SNB-19 = assay: NCI one-dose screening, CNS cancer SNB-19; format: cell-based, human; conditions: 10 μM
human tumor cell lines = assay: NCI one-dose screening, Mean / Delta / Range of growth percent over all tested cell lines; format: cell-based; conditions: 10 μM
NCI-H460 = assay: NCI one-dose screening, non-small cell lung cancer NCI-H460; format: cell-based, human; conditions: 10 μM
[1] = NCI one-dose screening, renal cancer A489; format: cell-based, human; conditions: 10 μM
SNB-75 = assay: NCI one-dose screening, CNS cancer SNB-75; format: cell-based, human; conditions: 10 μM
MDA-MB-231/ATCC = assay: NCI one-dose screening, breast cancer MDA-MB-231/ATCC; format: cell-based, human; conditions: 10 μM
A549/ATCC = assay: NCI one-dose screening, non-small cell lung cancer A549/ATCC; format: cell-based, human; conditions: 10 μM
UO-31 = assay: NCI one-dose screening, renal cancer UO-31; format: cell-based, human; conditions: 10 μM
RXF, 393 = assay: NCI one-dose screening, renal cancer RXF, 393; format: cell-based, human; conditions: 10 μM
OVCAR-8 = assay: NCI one-dose screening, ovarian cancer OVCAR-8; format: cell-based, human; conditions: 10 μM
EKVX = assay: NCI one-dose screening, non-small cell lung cancer EKVX; format: cell-based, human; conditions: 10 μM
KM12 = assay: NCI one-dose screening, colon cancer KM12; format: cell-based, human; conditions: 10 μM
UACC-257 = assay: NCI one-dose screening, melanoma UACC-257; format: cell-based, human; conditions: 10 μM
SK-MEL-5 = assay: NCI one-dose screening, melanoma SK-MEL-5; format: cell-based, human; conditions: 10 μM
DU145 = assay: NCI one-dose screening, prostate cancer DU145; format: cell-based, human; conditions: 10 μM
786-O = assay: NCI one-dose screening, renal cancer 786-O; format: cell-based, human; conditions: 10 μM
UACC-62 = assay: NCI one-dose screening, melanoma UACC-62; format: cell-based, human; conditions: 10 μM
MDA-MB-468 = assay: NCI one-dose screening, breast cancer MDA-MB-468; format: cell-based, human; conditions: 10 μM
LOX IMVI = assay: NCI one-dose screening, melanoma LOX IMVI; format: cell-based, human; conditions: 10 μM
[2] = test system: PC-3 prostate cancer cell line; assay: SRB assay cell viability, PC-3 prostate cancer cell line; format: cell-based, human; conditions: PC-3 prostate cancer cell line, Table II prints no unit, μM printed, read-out: SRB assay: 50% inhibition of cancer cell proliferation of sample concentration (IC50) of PC-3 prostate cancer cell line
OVCAR-3 = assay: NCI one-dose screening, ovarian cancer OVCAR-3; format: cell-based, human; conditions: 10 μM
K562cell line = assay: NCI one-dose screening, leukemia K562; format: cell-based, human; conditions: 10 μM
PRMI-8226 cell line = assay: NCI one-dose screening, leukemia PRMI-8226; format: cell-based, human; conditions: 10 μM
HS 578-T = assay: NCI one-dose screening, breast cancer HS 578-T; format: cell-based, human; conditions: 10 μM; Breast cancer
MDA, -MB-435 = assay: NCI one-dose screening, breast cancer MDA, -MB-435; format: cell-based, human; conditions: 10 μM; listed under Melanoma
HCT-15 = assay: NCI one-dose screening, colon cancer HCT-15; format: cell-based, human; conditions: 10 μM
HCC-2998 = assay: NCI one-dose screening, colon cancer HCC-2998; format: cell-based, human; conditions: 10 μM
M14 = assay: NCI one-dose screening, melanoma M14; format: cell-based, human; conditions: 10 μM
HOP-62 = assay: NCI one-dose screening, non-small cell lung cancer HOP-62; format: cell-based, human; conditions: 10 μM
NCl/ADR-RES = assay: NCI one-dose screening, breast cancer NCl/ADR-RES; format: cell-based, human; conditions: 10 μM; listed under Ovarian cancer
MALME-3M = assay: NCI one-dose screening, melanoma MALME-3M; format: cell-based, human; conditions: 10 μM
SF-295 = assay: NCI one-dose screening, CNS cancer SF-295; format: cell-based, human; conditions: 10 μM
SR = assay: NCI one-dose screening, leukemia SR; format: cell-based, human; conditions: 10 μM
TK-10 = assay: NCI one-dose screening, renal cancer TK-10; format: cell-based, human; conditions: 10 μM
SF-268 = assay: NCI one-dose screening, CNS cancer SF-268; format: cell-based, human; conditions: 10 μM
HL-60, TB = assay: NCI one-dose screening, leukemia HL-60, TB; format: cell-based, human; conditions: 10 μM
HCT-116 = assay: NCI one-dose screening, colon cancer HCT-116; format: cell-based, human; conditions: 10 μM
ACHN = assay: NCI one-dose screening, renal cancer ACHN; format: cell-based, human; conditions: 10 μM
HOP-92 = assay: NCI one-dose screening, non-small cell lung cancer HOP-92; format: cell-based, human; conditions: 10 μM
SN12C = assay: NCI one-dose screening, renal cancer SN12C; format: cell-based, human; conditions: 10 μM
NCI-H522 = assay: NCI one-dose screening, non-small cell lung cancer NCI-H522; format: cell-based, human; conditions: 10 μM
MOLT-4 = assay: NCI one-dose screening, leukemia MOLT-4; format: cell-based, human; conditions: 10 μM
NCI-H226 = assay: NCI one-dose screening, non-small cell lung cancer NCI-H226; format: cell-based, human; conditions: 10 μM
U251 = assay: NCI one-dose screening, CNS cancer U251; format: cell-based, human; conditions: 10 μM
CAKI-1 = assay: NCI one-dose screening, renal cancer CAKI-1; format: cell-based, human; conditions: 10 μM
PC-3 = assay: NCI one-dose screening, prostate cancer PC-3; format: cell-based, human; conditions: 10 μM
SF-539 = assay: NCI one-dose screening, CNS cancer SF-539; format: cell-based, human; conditions: 10 μM
OVCAR-5 = assay: NCI one-dose screening, ovarian cancer OVCAR-5; format: cell-based, human; conditions: 10 μM
NCI-H23 = assay: NCI one-dose screening, non-small cell lung cancer NCI-H23; format: cell-based, human; conditions: 10 μM
HT29 = assay: NCI one-dose screening, colon cancer HT29; format: cell-based, human; conditions: 10 μM
COLO 205 = assay: NCI one-dose screening, colon cancer COLO 205; format: cell-based, human; conditions: 10 μM
T-47D = assay: NCI one-dose screening, breast cancer T-47D; format: cell-based, human; conditions: 10 μM

For “4-(2,5-dichloro-phenyl thio)anthra[2,1-c] [1,2,5]thiadiazol oxazole-6,11-dione [C35]”, the “Growth Percent SK-MEL-28” value (SK-MEL-28) was 122.69%, the “Growth Percent MCF7” value (MCF7) was 85.16% and the “Growth Percent BT-549” value (BT-549) was 79.66%. The “Growth Percent SK-OV-3” value (SK-OV-3) was 84.09%, the “Growth Percent IGROV1” value (IGROV1) was 78.13% and the “Growth Percent SK-MEL-2” value (SK-MEL-2) was 101.38%. The “Growth Percent SNB-19” value (SNB-19) was 84.39%, the “Growth Percent Delta” value (human tumor cell lines; delta over all cell lines) was 85.86% and the “Growth Percent Mean” value (human tumor cell lines; mean over all cell lines) was 87.13%. For the same substance, the “Growth Percent Range” value (human tumor cell lines; range over all cell lines) was 121.42%, the “Growth Percent NCI-H460” value (NCI-H460) was 100.98% and the “Growth Percent A498” value [1] was 87.70%. For the same substance, the “Growth Percent SNB-75” value (SNB-75) was 47.00%, the “Growth Percent MDA-MB-231/ATCC” value (MDA-MB-231/ATCC) was 82.44% and the “Growth Percent A549/ATCC” value (A549/ATCC) was 102.75%. The “Growth Percent UO-31” value (UO-31) was 91.54%, the “Growth Percent RXF 393” value (RXF, 393) was 91.47% and the “Growth Percent OVCAR-8” value (OVCAR-8) was 85.13%. The “Growth Percent EKVX” value (EKVX) was 109.03%, the “Growth Percent KM12” value (KM12) was 101.18% and the “Growth Percent UACC-257” value (UACC-257) was 119.38%. For the same substance, the “Growth Percent SK-MEL-5” value (SK-MEL-5) was 108.82%, the “Growth Percent DU145” value (DU145) was 102.44% and the “Growth Percent 786-0” value (786-O) was 67.49%. The “Growth Percent UACC-62” value (UACC-62) was 94.09%, the “Growth Percent MDA-MB-468” value (MDA-MB-468) was 90.73% and the “Growth Percent LOX IMVI” value (LOX IMVI) was 73.05%. The IC50 [2] was > 15 µM, the “Growth Percent OVCAR-3” value (OVCAR-3) was 99.41% and the “Growth Percent K562” value (K562cell line) was 47.80%. For the same substance, the “Growth Percent RPMI-8226” value (PRMI-8226 cell line) was 77.16%, the “Growth Percent HS 578T” value (HS 578-T) was 72.51% and the “Growth Percent MDA-MB-435” value (MDA, -MB-435) was 105.64%. For the same substance, the “Growth Percent HCT-15” value (HCT-15) was 92.85%, the “Growth Percent HCC-2998” value (HCC-2998) was 109.37% and the “Growth Percent M14” value (M14) was 98.95%. For the same substance, the “Growth Percent HOP-62” value (HOP-62) was 63.18%, the “Growth Percent NCI/ADR-RES” value (NCl/ADR-RES) was 83.13% and the “Growth Percent MALME-3M” value (MALME-3M) was 94.30%. The “Growth Percent SF-295” value (SF-295) was 78.93%, the “Growth Percent SR” value (SR) was 41.15% and the “Growth Percent TK-10” value (TK-10) was 111.76%. The “Growth Percent SF-268” value (SF-268) was 82.95%, the “Growth Percent HL-60(TB)” value (HL-60, TB) was 72.72% and the “Growth Percent HCT-116” value (HCT-116) was 81.94%. The “Growth Percent ACHN” value (ACHN) was 88.50%, the “Growth Percent HOP-92” value (HOP-92) was 65.12% and the “Growth Percent SN12C” value (SN12C) was 96.65%. The “Growth Percent NCI-H522” value (NCI-H522) was 91.29%, the “Growth Percent MOLT-4” value (MOLT-4) was 1.27% and the “Growth Percent NCI-H226” value (NCI-H226) was 112.00%. The “Growth Percent U251” value (U251) was 63.57%, the “Growth Percent CAKI-1” value (CAKI-1) was 108.19% and the “Growth Percent PC-3” value (PC-3) was 80.59%. The “Growth Percent SF-539” value (SF-539) was 88.74%, the “Growth Percent OVCAR-5” value (OVCAR-5) was 108.82% and the “Growth Percent NCI-H23” value (NCI-H23) was 74.59%. The “Growth Percent HT29” value (HT29) was 106.27%, the “Growth Percent COLO 205” value (COLO 205) was 109.65% and the “Growth Percent T-47D” value (T-47D) was 63.44%.

From patent US8877748B2, “Heterocyclic fused anthraquinone derivatives, manufacturing method and pharmaceutical composition using thereof” (National Defense Medical Center, priority 2012, dated 2014)
